According to ChEMBL document CHEMBL1201862, “PubChem BioAssay data set” (2004):
Activity calls are given as the source filed them.

What was measured:
Insulin-degrading enzyme [1] = molecular target: T1, Insulin-degrading enzyme (Homo sapiens, UniProt P14735); assay: activators of recombinant IDE enzyme, dose response, counter-screen for IDE activator project, biochemical, fluorescence polarization (AID 588681)
T1 sequence (P14735 whole entry): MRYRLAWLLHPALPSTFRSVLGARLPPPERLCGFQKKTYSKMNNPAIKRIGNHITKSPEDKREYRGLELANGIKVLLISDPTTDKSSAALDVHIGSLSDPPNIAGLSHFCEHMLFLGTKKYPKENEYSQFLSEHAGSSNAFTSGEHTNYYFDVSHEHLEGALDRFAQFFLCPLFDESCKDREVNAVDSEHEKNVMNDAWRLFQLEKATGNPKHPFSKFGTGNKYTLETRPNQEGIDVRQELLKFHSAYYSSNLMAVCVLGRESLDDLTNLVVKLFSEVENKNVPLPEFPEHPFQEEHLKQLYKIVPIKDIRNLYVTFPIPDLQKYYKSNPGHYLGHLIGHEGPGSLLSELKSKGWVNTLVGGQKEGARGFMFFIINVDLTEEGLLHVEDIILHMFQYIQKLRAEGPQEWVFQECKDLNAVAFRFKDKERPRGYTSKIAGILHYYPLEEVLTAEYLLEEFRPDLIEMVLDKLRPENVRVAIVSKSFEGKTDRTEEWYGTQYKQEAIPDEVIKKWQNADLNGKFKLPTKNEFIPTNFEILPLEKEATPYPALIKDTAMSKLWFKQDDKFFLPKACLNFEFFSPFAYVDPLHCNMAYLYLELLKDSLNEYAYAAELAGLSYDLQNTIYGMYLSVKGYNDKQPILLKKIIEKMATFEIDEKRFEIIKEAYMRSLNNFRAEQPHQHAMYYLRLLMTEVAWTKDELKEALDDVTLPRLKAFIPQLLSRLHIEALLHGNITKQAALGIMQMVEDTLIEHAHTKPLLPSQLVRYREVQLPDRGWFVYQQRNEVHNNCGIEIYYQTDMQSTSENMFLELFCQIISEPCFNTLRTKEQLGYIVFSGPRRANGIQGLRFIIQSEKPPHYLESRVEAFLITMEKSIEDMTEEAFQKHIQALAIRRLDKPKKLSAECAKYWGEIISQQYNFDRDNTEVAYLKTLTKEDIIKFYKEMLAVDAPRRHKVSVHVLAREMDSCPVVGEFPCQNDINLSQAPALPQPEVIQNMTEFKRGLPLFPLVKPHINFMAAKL

Insulin-degrading enzyme [2] = molecular target: T1, Insulin-degrading enzyme; assay: activators of endogenous IDE in HEK cells, dose response, cell-based, fluorescence polarization (AID 588439); format: functional
HEK293 [3] = assay: HEK cell cytotoxicity by LDH release, dose response, cytotoxicity control for IDE activator project, fluorescence, HEK cells (AID 588440); format: functional, cell-based; settings: Homo sapiens;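 further: cytotoxicity by LDH release measuring loss of membrane integrity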
HEK293 [4] = assay: optical interference in Abeta FP readout, dose response, artefact control for IDE activator project, biochemical, fluorescence polarization (AID 588442); format: functional, cell-based; settings: Homo sapiens
[5] = molecular target: T2, Hepatocyte nuclear factor 4-alpha (Homo sapiens, UniProt P41235); format: functional, cell-based;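 further: biochemical luminescence-based dose-response counterscreen measuring inhibition of HNF4 dimerization, run alongside a screen for blockers of ABHD5–perilipin-5 interaction; split luciferase complementation of HNF4 fusion proteins in cell lysate measuring dimerization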
T2 sequence (P41235 whole entry): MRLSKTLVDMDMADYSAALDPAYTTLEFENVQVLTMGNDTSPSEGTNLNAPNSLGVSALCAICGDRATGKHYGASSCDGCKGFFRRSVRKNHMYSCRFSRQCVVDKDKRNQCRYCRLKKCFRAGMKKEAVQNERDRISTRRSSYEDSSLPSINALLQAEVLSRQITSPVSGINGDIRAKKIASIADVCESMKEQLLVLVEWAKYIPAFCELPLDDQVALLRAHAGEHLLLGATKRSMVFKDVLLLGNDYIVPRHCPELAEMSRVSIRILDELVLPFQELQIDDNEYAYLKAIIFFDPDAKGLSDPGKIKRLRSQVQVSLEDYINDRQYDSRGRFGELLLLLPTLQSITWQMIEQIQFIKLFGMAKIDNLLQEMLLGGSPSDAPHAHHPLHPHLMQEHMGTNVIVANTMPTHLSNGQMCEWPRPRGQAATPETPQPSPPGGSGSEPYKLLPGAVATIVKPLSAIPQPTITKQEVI

[6] = Luminescence Cell-Based Dose Retest to Confirm Inhibitors of Cancer Stem Cells. [Related pubchem assays (depositor defined):AID2717, AID2721]; format: functional; settings: Homo sapiens
Caspase-3 = molecular target: T3, Caspase-3 (Homo sapiens, UniProt P42574); format: functional;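 further: Dose-response selectivity test against caspase-3 for candidate inhibitors of sentrin-specific proteases (SENPs)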
T3 sequence (P42574 whole entry): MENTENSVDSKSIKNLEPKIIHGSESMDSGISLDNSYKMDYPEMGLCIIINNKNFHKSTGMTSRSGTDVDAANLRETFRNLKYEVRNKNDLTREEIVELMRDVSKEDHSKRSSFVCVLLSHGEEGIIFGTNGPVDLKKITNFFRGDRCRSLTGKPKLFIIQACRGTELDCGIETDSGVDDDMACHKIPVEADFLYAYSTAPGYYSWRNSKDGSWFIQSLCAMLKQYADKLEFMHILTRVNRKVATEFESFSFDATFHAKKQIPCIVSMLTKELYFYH

[7] = molecular target: T4, Sentrin-specific protease 7 (Homo sapiens, UniProt Q9BQF6); format: functional;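 further: Luminescence-based dose-response confirmation of ultra-high-throughput screening hits, measuring inhibition of SENP7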
T4 sequence (Q9BQF6 whole entry): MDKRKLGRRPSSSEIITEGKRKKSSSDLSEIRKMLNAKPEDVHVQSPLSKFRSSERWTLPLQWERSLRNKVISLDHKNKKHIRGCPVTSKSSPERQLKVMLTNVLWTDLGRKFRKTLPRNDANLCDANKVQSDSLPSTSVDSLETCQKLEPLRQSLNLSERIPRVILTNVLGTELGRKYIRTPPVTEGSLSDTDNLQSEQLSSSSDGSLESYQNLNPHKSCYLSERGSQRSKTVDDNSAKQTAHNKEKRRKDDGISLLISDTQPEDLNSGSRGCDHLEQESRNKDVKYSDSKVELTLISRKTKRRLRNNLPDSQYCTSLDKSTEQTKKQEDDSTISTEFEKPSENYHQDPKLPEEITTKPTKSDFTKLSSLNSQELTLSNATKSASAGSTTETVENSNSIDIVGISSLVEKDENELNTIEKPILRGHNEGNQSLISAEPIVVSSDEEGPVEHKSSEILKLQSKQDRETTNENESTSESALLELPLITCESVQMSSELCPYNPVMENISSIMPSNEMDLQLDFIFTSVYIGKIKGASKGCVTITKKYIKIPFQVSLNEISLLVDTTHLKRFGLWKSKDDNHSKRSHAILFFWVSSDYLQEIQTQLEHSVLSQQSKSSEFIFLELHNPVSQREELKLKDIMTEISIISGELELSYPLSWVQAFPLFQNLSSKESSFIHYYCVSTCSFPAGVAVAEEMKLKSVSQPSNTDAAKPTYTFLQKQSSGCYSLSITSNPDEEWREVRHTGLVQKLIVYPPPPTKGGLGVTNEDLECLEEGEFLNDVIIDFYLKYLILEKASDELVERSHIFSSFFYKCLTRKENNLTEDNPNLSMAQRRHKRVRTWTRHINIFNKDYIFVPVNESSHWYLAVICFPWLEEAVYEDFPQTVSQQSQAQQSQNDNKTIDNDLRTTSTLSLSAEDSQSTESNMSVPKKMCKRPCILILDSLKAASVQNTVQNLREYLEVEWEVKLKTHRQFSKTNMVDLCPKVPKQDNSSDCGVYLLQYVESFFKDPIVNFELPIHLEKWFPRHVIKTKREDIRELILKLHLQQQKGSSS

[8] = molecular target: T5, Sentrin-specific protease 6 (Homo sapiens, UniProt Q9GZR1); format: functional;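 further: Luminescence-based dose-response confirmatory assay of SENP6 inhibition, following up an ultra-high-throughput screen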
T5 sequence (Q9GZR1 whole entry): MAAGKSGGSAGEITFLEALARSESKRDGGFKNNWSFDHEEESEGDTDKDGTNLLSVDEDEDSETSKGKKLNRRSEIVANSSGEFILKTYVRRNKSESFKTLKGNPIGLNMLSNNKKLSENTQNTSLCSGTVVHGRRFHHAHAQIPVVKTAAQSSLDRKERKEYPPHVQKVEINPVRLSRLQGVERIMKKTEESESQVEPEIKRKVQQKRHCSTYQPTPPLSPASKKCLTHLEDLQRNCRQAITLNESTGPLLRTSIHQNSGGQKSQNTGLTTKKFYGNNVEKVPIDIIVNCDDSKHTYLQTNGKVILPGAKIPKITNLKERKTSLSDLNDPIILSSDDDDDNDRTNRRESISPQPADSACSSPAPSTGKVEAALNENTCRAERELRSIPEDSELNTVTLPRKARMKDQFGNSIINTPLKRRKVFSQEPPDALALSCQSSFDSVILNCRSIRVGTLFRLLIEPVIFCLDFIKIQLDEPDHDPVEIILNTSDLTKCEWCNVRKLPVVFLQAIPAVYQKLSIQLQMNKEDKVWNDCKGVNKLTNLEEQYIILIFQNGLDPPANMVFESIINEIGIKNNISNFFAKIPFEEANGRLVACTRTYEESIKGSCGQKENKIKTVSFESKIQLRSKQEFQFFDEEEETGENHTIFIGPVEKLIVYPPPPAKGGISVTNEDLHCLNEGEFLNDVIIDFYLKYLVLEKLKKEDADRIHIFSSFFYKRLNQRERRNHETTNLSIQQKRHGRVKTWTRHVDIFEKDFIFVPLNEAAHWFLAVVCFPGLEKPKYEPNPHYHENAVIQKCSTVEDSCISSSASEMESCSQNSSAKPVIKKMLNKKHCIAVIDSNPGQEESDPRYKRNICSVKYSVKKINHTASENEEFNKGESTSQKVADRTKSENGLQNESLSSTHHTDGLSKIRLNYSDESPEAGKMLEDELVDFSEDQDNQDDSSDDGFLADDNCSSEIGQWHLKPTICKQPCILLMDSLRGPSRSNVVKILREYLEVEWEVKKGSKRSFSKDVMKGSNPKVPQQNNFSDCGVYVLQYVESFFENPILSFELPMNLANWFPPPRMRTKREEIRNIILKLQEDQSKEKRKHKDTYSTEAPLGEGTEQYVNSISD

[9] = molecular target: T6, Sentrin-specific protease 8 (Homo sapiens, UniProt Q96LD8); format: functional;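 further: luminescence read-out of SENP8 inhibition, dose-response confirmation following an ultra-high-throughput screen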
T6 sequence (Q96LD8 whole entry): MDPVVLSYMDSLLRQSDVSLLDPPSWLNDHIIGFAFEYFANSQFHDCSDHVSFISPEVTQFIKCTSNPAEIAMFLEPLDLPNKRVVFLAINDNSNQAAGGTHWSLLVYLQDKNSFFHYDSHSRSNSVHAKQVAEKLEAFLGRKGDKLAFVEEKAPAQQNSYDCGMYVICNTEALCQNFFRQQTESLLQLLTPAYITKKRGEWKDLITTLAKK

Vero = Vero cell cytotoxicity, cytotoxicity control for flavivirus capping enzyme inhibitors (AID 588742); format: functional; settings: Chlorocebus sabaeus
Genome polyprotein = Genome polyprotein (dengue virus type 2, UniProt P29990); assay: Dengue-2 NS5 methyltransferase inhibitors, primary screen, biochemical, confirmation dose response (AID 588689); format: functional
Genome polyprotein, sequence (P29990 2492-3391 limits assumed): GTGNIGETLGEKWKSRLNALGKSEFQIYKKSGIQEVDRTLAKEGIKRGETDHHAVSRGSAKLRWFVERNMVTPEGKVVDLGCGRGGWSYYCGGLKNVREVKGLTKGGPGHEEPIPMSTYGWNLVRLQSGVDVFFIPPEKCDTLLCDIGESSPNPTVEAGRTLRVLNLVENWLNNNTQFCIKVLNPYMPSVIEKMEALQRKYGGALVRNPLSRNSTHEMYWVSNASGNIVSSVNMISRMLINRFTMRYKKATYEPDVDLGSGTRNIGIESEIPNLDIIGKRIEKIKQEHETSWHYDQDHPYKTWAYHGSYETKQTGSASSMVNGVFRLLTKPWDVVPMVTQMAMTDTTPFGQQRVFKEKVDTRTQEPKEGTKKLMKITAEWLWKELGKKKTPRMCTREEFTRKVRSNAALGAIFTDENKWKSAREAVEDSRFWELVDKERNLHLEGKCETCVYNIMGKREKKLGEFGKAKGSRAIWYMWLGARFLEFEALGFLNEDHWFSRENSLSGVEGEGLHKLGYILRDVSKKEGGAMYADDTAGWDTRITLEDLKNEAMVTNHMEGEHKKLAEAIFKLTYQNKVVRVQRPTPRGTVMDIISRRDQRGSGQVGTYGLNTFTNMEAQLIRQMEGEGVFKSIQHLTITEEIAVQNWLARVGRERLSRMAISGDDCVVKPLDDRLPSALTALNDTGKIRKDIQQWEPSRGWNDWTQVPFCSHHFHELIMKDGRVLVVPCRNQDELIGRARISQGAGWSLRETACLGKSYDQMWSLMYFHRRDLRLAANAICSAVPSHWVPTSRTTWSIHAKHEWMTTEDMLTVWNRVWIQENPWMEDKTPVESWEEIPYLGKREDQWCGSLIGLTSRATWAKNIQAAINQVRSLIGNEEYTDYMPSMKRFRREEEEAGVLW

[10] = tested on: Streptococcus sp. 'group A'; assay: growth inhibition of control SK(-) GAS strain, dose response, counter-screen for streptokinase expression inhibitor project, luminescence, kanamycin, BacTiterGlo, confirmation (AID 1900); format: functional, organism-based
Streptokinase A = molecular target: T7, Streptokinase A (Streptococcus pyogenes serotype M1, UniProt P10520); assay: S. pyogenes streptokinase expression inhibitors, potency, dose response, plasminogen activation absorbance, OD405 (AID 1914); format: functional, Streptococcus pyogenes M1 GAS;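 further: secreted streptokinase activity via plasminogen activation per viability signal from cell pellet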
T7 sequence (P10520 whole entry): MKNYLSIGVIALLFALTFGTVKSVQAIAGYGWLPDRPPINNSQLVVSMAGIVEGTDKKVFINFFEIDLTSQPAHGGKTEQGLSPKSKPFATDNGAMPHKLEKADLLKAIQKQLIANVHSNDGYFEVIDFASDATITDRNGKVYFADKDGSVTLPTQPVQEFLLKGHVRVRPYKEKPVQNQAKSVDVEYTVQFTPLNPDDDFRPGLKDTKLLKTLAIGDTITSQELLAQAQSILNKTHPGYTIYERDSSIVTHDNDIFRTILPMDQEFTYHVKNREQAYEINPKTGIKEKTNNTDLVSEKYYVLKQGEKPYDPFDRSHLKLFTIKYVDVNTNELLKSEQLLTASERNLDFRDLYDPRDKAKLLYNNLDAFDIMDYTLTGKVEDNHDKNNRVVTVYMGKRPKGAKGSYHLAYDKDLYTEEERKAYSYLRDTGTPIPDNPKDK

Streptococcus = assay: Group A Streptococcus viability loss, dose response, counter-screen for streptokinase expression inhibitor project, luminescence, BacTiterGlo (AID 1915); format: functional, organism-based;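 further: potency for reduction of bacterial viability or growth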
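Wherever AC50 is given: cells exposed to compound for roughly 70 hours or longer before luminescence read.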

SMILES | EC50 (Insulin-degrading enzyme [1]) | EC50 (Insulin-degrading enzyme [2]) | IC50 (HEK293 [3]) | EC50 (HEK293 [4]) | IC50 [5] | CC50 (Vero) | IC50 (Genome polyprotein) | further results
OC(CNC1CCCCC1)C(F)(F)F (configuration not stated) | > 54.7 µM (inactive) | > 54.7 µM (inactive) | > 89.1 µM (inactive) | > 55.9 µM (inactive) | – | – | – | –
CCN(c1ccccc1)S(=O)(=O)c1ccc(N2CCN(c3ccc(OC)cc3)CC2)nc1 | > 54.7 µM (inactive) | > 54.7 µM (inactive) | > 89.2 µM (inactive) | > 55.9 µM (inactive) | – | – | – | –
O=C(NCc1ccccc1)C(c1ccccc1)n1c(=O)c(-c2ccco2)nc2ccccc21 (configuration not stated) | – | – | – | – | 2.93 µM (active) | – | – | –
COc1ccc(NC(=O)c2cc3ccccc3cc2O)cc1 | – | – | – | – | 10 µM (inactive) | 34.6 µM (active) | > 100 µM (active) | AC50 [6]: 6.04 µM (active); IC50 (Caspase-3): 20.7 µM (active); IC50 [7]: 5.51 µM (active); IC50 [8]: 72.6 µM (active); IC50 [9]: > 100 µM (inactive)
C[C@H]1COC2=C1C(=O)C(=O)c1c2ccc2c1CCCC2(C)C [CRYPTOTANSHINONE] | – | – | – | – | – | 33.4 µM (active) | 90.1 µM (active) | EC50 [10]: 5.17 µM (active); EC50 (Streptokinase A): 14.8 µM (active); EC50 (Streptococcus): 14.1 µM (active)
